# According to patent US9931327B2, “Derivatives of 1-phenyl-2-pyridinyl alkyl alcohols as phosphodiesterase inhibitors” (Chiesi Farmaceutici S.p.A., priority 2011, dated 2018):
# Test system: LPS-induced TNF-α release in peripheral blood mononuclear cells (PBMCs)
# Assay: In vitro determination of PDE4 inhibitory activity in the PBMCs assay (LPS-induced TNF-α release)
# Type: cell-based, human
# Settings: PBMC; human PBMCs, LPS 3 ng/ml, 18 hours, TNF-α by ELISA; read-out: PDE4 inhibition (IC50, 50% inhibition of LPS-induced TNF-α release)
# Procedure, shortened: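 Cryopreserved human PBMCs (10^5 cells/well) pre-incubated 30 min with compound (10^−12 to 10^−6 M or 10^−3 to 10^−7 M), then stimulated with LPS 3 ng/ml for 18 h at 37 °C. TNF-α in medium by ELISA; IC50 as mean ± 95% confidence limits.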
row,SMILES,IC50 [nM]
1,"O=C(O[C@@H](Cc1c(Cl)c[n+]([O-])cc1Cl)c1ccc(OC(F)F)c(OCC2CC2)c1)[C@@H]1SCCN1S(=O)(=O)c1cccnc1 [Compound 88, 3,5-dichloro-4-((S)-2-(3-(cyclopropylmethoxy)-4-(difluoromethoxy)phenyl)-2-((S)-3-(pyridin-3-ylsulfonyl)thiazolidine-2-carbonyloxy)ethyl)pyridine 1-oxide]",< 0.1
2,"O=C(O[C@@H](Cc1c(Cl)c[n+]([O-])cc1Cl)c1ccc(OC(F)F)c(OCC2CC2)c1)[C@@H]1SCCN1S(=O)(=O)c1ccccc1 [Compound 89, 3,5-dichloro-4-((S)-2-(3-(cyclopropylmethoxy)-4-(difluoromethoxy)phenyl)-2-((S)-3-(phenylsulfonyl)thiazolidine-2-carbonyloxy)ethyl)pyridine 1-oxide]",0.1 to 1
3,"Cn1ccnc1S(=O)(=O)N1CCS[C@H]1C(=O)O[C@@H](Cc1c(Cl)c[n+]([O-])cc1Cl)c1ccc(OC(F)F)c(OCC2CC2)c1 [Compound 90, 3,5-dichloro-4-((S)-2-(3-(cyclopropylmethoxy)-4-(difluoromethoxy)phenyl)-2-((S)-3-(1-methyl-1H-imidazol-2-ylsulfonyl)thiazolidine-2-carbonyloxy)ethyl)pyridine 1-oxide]",< 0.1
4,"NS(=O)(=O)c1cccc(S(=O)(=O)N2CCS[C@H]2C(=O)O[C@@H](Cc2c(Cl)c[n+]([O-])cc2Cl)c2ccc(OC(F)F)c(OCC3CC3)c2)c1 [Compound 91, 3,5-dichloro-4-((S)-2-(3-(cyclopropylmethoxy)-4-(difluoromethoxy)phenyl)-2-((S)-3-(3-sulfamoylphenylsulfonyl)thiazolidine-2-carbonyloxy)ethyl)pyridine 1-oxide]",< 0.1
5,"CS(=O)(=O)c1ccc(S(=O)(=O)N2CCSC2C(=O)O[C@@H](Cc2c(Cl)c[n+]([O-])cc2Cl)c2ccc(OC(F)F)c(OCC3CC3)c2)cc1 (stereo partly drawn) [Compound 92, 3,5-dichloro-4-((2S)-2-(3-(cyclopropylmethoxy)-4-(difluoromethoxy)phenyl)-2-(3-(4-(methylsulfonyl)phenylsulfonyl)thiazolidine-2-carbonyloxy)ethyl)pyridine 1-oxide]",< 0.1
6,"COc1ccc(S(=O)(=O)N2CCS[C@H]2C(=O)O[C@@H](Cc2c(Cl)c[n+]([O-])cc2Cl)c2ccc(OC(F)F)c(OCC3CC3)c2)cc1OC [Compound 93, 3,5-dichloro-4-((S)-2-(3-(cyclopropylmethoxy)-4-(difluoromethoxy)phenyl)-2-((S)-3-(3,4-dimethoxyphenylsulfonyl)thiazolidine-2-carbonyloxy)ethyl)pyridine 1-oxide]",< 0.1
7,"CNS(=O)(=O)c1ccc(S(=O)(=O)N2CCS[C@H]2C(=O)O[C@@H](Cc2c(Cl)c[n+]([O-])cc2Cl)c2ccc(OC(F)F)c(OCC3CC3)c2)cc1 [Compound 94, 3,5-dichloro-4-((S)-2-(3-(cyclopropylmethoxy)-4-(difluoromethoxy)phenyl)-2-((S)-3-(4-(N-methylsulfamoyl)phenylsulfonyl)thiazolidine-2-carbonyloxy)ethyl)pyridine 1-oxide]",< 0.1
8,"O=C(O[C@@H](Cc1c(Cl)c[n+]([O-])cc1Cl)c1ccc(OC(F)F)c(OCC2CC2)c1)[C@@H]1SCCN1S(=O)(=O)c1ccco1 [Compound 95, 3,5-dichloro-4-((S)-2-(3-(cyclopropylmethoxy)-4-(difluoromethoxy)phenyl)-2-((S)-3-(furan-2-ylsulfonyl)thiazolidine-2-carbonyloxy)ethyl)pyridine 1-oxide]",< 0.1
9,"O=C(O[C@@H](Cc1c(Cl)c[n+]([O-])cc1Cl)c1ccc(OC(F)F)c(OCC2CC2)c1)[C@@H]1SCCN1S(=O)(=O)c1ccoc1 [Compound 96, 3,5-dichloro-4-((S)-2-(3-(cyclopropylmethoxy)-4-(difluoromethoxy)phenyl)-2-((S)-3-(furan-3-ylsulfonyl)thiazolidine-2-carbonyloxy)ethyl)pyridine 1-oxide]",< 0.1
10,"CN(C)S(=O)(=O)c1cccc(S(=O)(=O)N2CCS[C@H]2C(=O)O[C@@H](Cc2c(Cl)c[n+]([O-])cc2Cl)c2ccc(OC(F)F)c(OCC3CC3)c2)c1 [Compound 97, 3,5-dichloro-4-((S)-2-(3-(cyclopropylmethoxy)-4-(difluoromethoxy)phenyl)-2-((S)-3-(3-(N,N-dimethylsulfamoyl)phenylsulfonyl)thiazolidine-2-carbonyloxy)ethyl)pyridine 1-oxide]",< 0.1
11,"COc1ccc(S(=O)(=O)N2CCCC[C@H]2C(=O)O[C@@H](Cc2c(Cl)c[n+]([O-])cc2Cl)c2ccc(OC(F)F)c(OCC3CC3)c2)cc1OC [Compound 98, 3,5-dichloro-4-((S)-2-(3-(cyclopropylmethoxy)-4-(difluoromethoxy)phenyl)-2-((S)-1-(3,4-dimethoxyphenylsulfonyl)piperidine-2-carbonyloxy)ethyl)pyridine 1-oxide]",0.1 to 1
12,"O=C(O[C@@H](Cc1c(Cl)c[n+]([O-])cc1Cl)c1ccc(OC(F)F)c(OCC2CC2)c1)[C@@H]1CCCCN1S(=O)(=O)c1cccnc1 [Compound 99, 3,5-dichloro-4-((S)-2-(3-(cyclopropylmethoxy)-4-(difluoromethoxy)phenyl)-2-((S)-1-(pyridin-3-ylsulfonyl)piperidine-2-carbonyloxy)ethyl)pyridine 1-oxide]",1 to 10
13,"COC(=O)c1ccc(S(=O)(=O)N2CCS[C@H]2C(=O)O[C@@H](Cc2c(Cl)c[n+]([O-])cc2Cl)c2ccc(OC(F)F)c(OCC3CC3)c2)cc1 [Compound 100, 3,5-dichloro-4-((S)-2-(3-(cyclopropylmethoxy)-4-(difluoromethoxy)phenyl)-2-((S)-3-(4-(methoxycarbonyl)phenylsulfonyl)thiazolidine-2-carbonyloxy)ethyl)pyridine 1-oxide]",1 to 10
14,"COC(=O)c1ccccc1S(=O)(=O)N1CCS[C@H]1C(=O)O[C@@H](Cc1c(Cl)c[n+]([O-])cc1Cl)c1ccc(OC(F)F)c(OCC2CC2)c1 [Compound 101, 3,5-dichloro-4-((S)-2-(3-(cyclopropylmethoxy)-4-(difluoromethoxy)phenyl)-2-((S)-3-(2-(methoxycarbonyl)phenylsulfonyl)thiazolidine-2-carbonyloxy)ethyl)pyridine 1-oxide]",< 0.1
15,"COc1cccc(S(=O)(=O)N2CCS[C@H]2C(=O)O[C@@H](Cc2c(Cl)c[n+]([O-])cc2Cl)c2ccc(OC(F)F)c(OCC3CC3)c2)c1 [Compound 103, 3,5-dichloro-4-((S)-2-(3-(cyclopropylmethoxy)-4-(difluoromethoxy)phenyl)-2-((S)-3-(3-methoxyphenylsulfonyl)thiazolidine-2-carbonyloxy)ethyl)pyridine 1-oxide]",0.1 to 1
16,"O=C(O[C@@H](Cc1c(Cl)c[n+]([O-])cc1Cl)c1ccc(OC(F)F)c(OCC2CC2)c1)[C@@H]1SCCN1S(=O)(=O)c1cccc(OC(F)(F)F)c1 [Compound 104, 3,5-dichloro-4-((S)-2-(3-(cyclopropylmethoxy)-4-(difluoromethoxy)phenyl)-2-((S)-3-(3-(trifluoromethoxy)phenylsulfonyl)thiazolidine-2-carbonyloxy)ethyl)pyridine 1-oxide]",0.1 to 1
17,"O=C(O[C@@H](Cc1c(Cl)c[n+]([O-])cc1Cl)c1ccc(OC(F)F)c(OCC2CC2)c1)[C@@H]1SCCN1S(=O)(=O)c1ccc(N2CCOCC2)nc1 [Compound 105, 3,5-dichloro-4-((S)-2-(3-(cyclopropylmethoxy)-4-(difluoromethoxy)phenyl)-2-((S)-3-(6-morpholinopyridin-3-ylsulfonyl)thiazolidine-2-carbonyloxy)ethyl)pyridine 1-oxide]",0.1 to 1
18,"COc1cc(C)ccc1S(=O)(=O)N1CCS[C@H]1C(=O)O[C@@H](Cc1c(Cl)c[n+]([O-])cc1Cl)c1ccc(OC(F)F)c(OCC2CC2)c1 [Compound 106, 3,5-dichloro-4-((S)-2-(3-(cyclopropylmethoxy)-4-(difluoromethoxy)phenyl)-2-((S)-3-(2-methoxy-4-methylphenylsulfonyl)thiazolidine-2-carbonyloxy)ethyl)pyridine 1-oxide]",< 0.1
19,"Cc1nc(C)c(S(=O)(=O)N2CCS[C@H]2C(=O)O[C@@H](Cc2c(Cl)c[n+]([O-])cc2Cl)c2ccc(OC(F)F)c(OCC3CC3)c2)s1 [Compound 107, 3,5-dichloro-4-((S)-2-(3-(cyclopropylmethoxy)-4-(difluoromethoxy)phenyl)-2-((S)-3-(2,4-dimethylthiazol-5-ylsulfonyl)thiazolidine-2-carbonyloxy)ethyl)pyridine 1-oxide]",< 0.1
20,"CN1CCOc2ccc(S(=O)(=O)N3CCS[C@H]3C(=O)O[C@@H](Cc3c(Cl)c[n+]([O-])cc3Cl)c3ccc(OC(F)F)c(OCC4CC4)c3)cc21 [Compound 108, 3,5-dichloro-4-((S)-2-(3-(cyclopropylmethoxy)-4-(difluoromethoxy)phenyl)-2-((S)-3-(4-methyl-3,4-dihydro-2H-benzo[b][1,4]oxazin-6-ylsulfonyl)thiazolidine-2-carbonyloxy)ethyl)pyridine 1-oxide]",0.1 to 1
21,"CS(=O)(=O)c1ccc(S(=O)(=O)N2CCS[C@H]2C(=O)O[C@@H](Cc2c(Cl)c[n+]([O-])cc2Cl)c2ccc(OC(F)F)c(OCC3CC3)c2)cc1 [Compound 109, 3,5-dichloro-4-((S)-2-(3-(cyclopropylmethoxy)-4-(difluoromethoxy)phenyl)-2-((S)-3-(4-(methylsulfonyl)phenylsulfonyl)thiazolidine-2-carbonyloxy)ethyl)pyridine 1-oxide]",< 0.1
22,"COc1ccc(S(=O)(=O)N2CCS[C@H]2C(=O)O[C@@H](Cc2c(Cl)c[n+]([O-])cc2Cl)c2ccc(OC(F)F)c(OCC3CC3)c2)cc1 [Compound 110, 3,5-dichloro-4-((S)-2-(3-(cyclopropylmethoxy)-4-(difluoromethoxy)phenyl)-2-((S)-3-(4-methoxyphenylsulfonyl)thiazolidine-2-carbonyloxy)ethyl)pyridine 1-oxide]",0.1 to 1
